The test system of one data set is Bladder Tissue. As to the kind of experiment: Relaxation of KCl-stimulated isolated rat bladder strips (contractile activity). Particulars: for inhibition at 30 µM: read-out: Bladder Tissue I = Percent inhibition at 30 μM. Details: species or system Sprague-Dawley rats. On the procedure:
Sprague-Dawley rats (150-200 g) are rendered unconscious by CO2 asphyxiation and then euthanized by cervical dislocation. The bladder is removed into warm (37° C.) physiological salt solution (PSS) of the following composition (mM): NaCl, 118.4; KCl, 4.7; CaCl2, 2.5; […]; NaHCO3, 24.9; KH2PO4, 1.2; glucose, 11.1; EDTA, 0.023; gassed with 95% O2; […]; pH 7.4. The bladder is opened and then cut into strips 1-2 mm in width and 7-10 mm in length. The strips are subsequently suspended in a 10 mL tissue bath under an initial resting tension of 1.5 g. The strips are held in place by two surgical clips one of which is attached to a fixed hook while the other is attached to an isometric force transducer. […] The carbachol is then washed out and the tissue allowed to relax to its resting level of activity. Following a further 30 min period of recovery an additional 15 mM KCl re introduced into the tissue bath. […] Following stabilization of this enhanced level of contractile activity, incremental increases in the concentration of test compound or vehicle are introduced into the tissue bath. Contractile activity is measured for each compound or vehicle concentration during the last minute of a 30 minute challenge.

The test system of a further data set is Aorta Tissue. In words: Relaxation of KCl-contracted isolated rat thoracic aortic rings (contractile force). Details: species or system Sprague-Dawley rats. To be noted: for IC50: Rattus norvegicus; for Ratio Aorta IC50 / Bladder IC50: aorta IC50 divided by bladder IC50, tissue selectivity. As for the experimental part:
The smooth muscle (aorta) relaxing activity of the compounds of this ivention was established in accordance with standard pharmaceutically accepted test procedures with representative compounds as follows.
Male Sprague-Dawley rats (150-200 g) are rendered unconscious by CO2 asphyxiation and then euthanized by cervical dislocation. The thoracic aorta is removed into warm (37° C.) physiological sial solution (PSS) of the following composition (mM): NaCl, 118.4; KCl, 4.7; CaCl2, 2.5; MgSO4.7H2O, 1.2; NaHCO3, 24.9; KH2PO4, 1.2; glucose, 11.1; EDTA, 0.023; gassed with 95% O2/5% CO2; pH 7.4. The aorta is cleaned of fat and loose adventitia and cut into rings 3-4 mm in width. The rings are subsequently suspended between two stainless steel wire tissue holders in a 10 mL tissue bath. One wire tissue holder is attached to a fixed hook while the other is attached to an isometric force transducer. Resting tension is set at 1 g. The tissues are to recover for a period of 60 min prior to beginning the experiment. Tissues are challenged with PSS containing 25 mM KCl to elicit a contracture. The tissues are then washed repeatedly with fresh PSS over a period of 30 min and allowed to recover to baseline tension. PSS containing 30-35 mM KCl is then introduced into the tissue bath to evoke a contracture that is allowed to stabilize for not less than 45 min. (Other stimuli such as norepinephrine, PGF2a, histamine, angiotensin II, endothelin or PSS containing 80 mM KCl may also be used to evoke a contracture as necessary). Increasing concentrations of test compound or vehicle are then added to the tissue bath in a cumulative fashion.
Isometric force development by the aortic rings is measured using a force transducer and recorded on a polygraph. The percentage inhibition of contractile force evoked by each concentration of a given test compound is used to generate a concentration-response curve. […] [Log concentration versus response curves are approximately linear between 20% and 80% of the maximum response. As such, the IC50 concentration of the drug is determined by linear regression analysis (where x=log concentration and y=% inhibition) of the data points in the 20% to 80% region of the curve.] […] Data collected from 2 animals are averaged for primary screens.

The mark [1] stands for this setting: rat bladder strips, additional 15 mM KCl, 30 μM test compound.

Marks after values point to notes of the source that are not given here. A value given as a limit tells only on which side of the number the result lay.

A word on the melting point: it is the temperature, or range, at which the solid turns liquid. For the molecule `O.O.O=C(O)c1cccc2c1[nH]c1c3cc([N+](=O)[O-])ccc3oc21` (hydrate or solvate) [Example 4, 8-Nitro-10H-benzo[4,5]furo[3,2-b]indole-1-carboxylic acid dihydrate], the melting point was 325 °C (dec.).

As for `N#Cc1cccc2c1[nH]c1c3cc(Br)ccc3oc21.O` (hydrate or solvate) [Example 10, 8-Bromo-10H-benzo[4,5]furo[3,2-b]indole-1-carbonitrile hydrate], the melting point was 277 to 280 °C (dec.).

What is called IC50 is the concentration at which inhibition is half-maximal. The low end stands for inhibition by little substance, the high end for a need for much substance. `O=C(O)c1cccc2c1[nH]c1c3cc(Br)ccc3oc21` [Example 1, 8-Bromo-10H-benzo[4,5]furo[3,2-b]indole-1-carboxylic acid] displayed a melting point of 312 to 313 °C. Moreover, in the data set with Bladder Tissue (Rattus norvegicus, 0.5 h), the IC50 was 15.1 ± 4.7 µM. Besides, in the data set with Aorta Tissue, the IC50 turned out to be 119 ± 21.8 µM and the “Ratio Aorta IC50 / Bladder IC50” value is reported as 7.9.

Regarding `O=C(O)c1cccc2c1[nH]c1c3cc(I)ccc3oc21` [Example 2, 8-Iodo-10H-benzo[4,5]furo[3,2-b]indole-1-carboxylic acid], the melting point was 297 °C (dec.). The same molecule returned an IC50 in the data set with Bladder Tissue (Rattus norvegicus, 0.5 h) of 6.1 ± 3 µM. For the same molecule, in the data set on Aorta Tissue, the IC50 amounted to 128 ± 16.9 µM and the “Ratio Aorta IC50 / Bladder IC50” value was 21.

Turning to `O=C(O)c1cccc2c1[nH]c1c3cc(Cl)ccc3oc21` [Example 3, 8-Chloro-10H-benzo[4,5]furo[3,2-b]indole-1-carboxylic acid], the melting point is 303 °C (dec.). In addition, the IC50 in the data set with Bladder Tissue (Rattus norvegicus, 0.5 h) was found to be 5.8 ± 1.5 µM. Also, in the data set on Aorta Tissue, the half-maximal inhibitory concentration (IC50) was 268 ± 82.3 µM and the “Ratio Aorta IC50 / Bladder IC50” value was determined as 46.2.

For `O.O.O=C(O)c1cccc2c1[nH]c1c3cc([N+](=O)[O-])ccc3oc21` [Example 4, 8-Nitro-10H-benzo[4,5]furo[3,2-b]indole-1-carboxylic acid dihydrate], the IC50 in the data set on Bladder Tissue (Rattus norvegicus, 0.5 h) came to 6.3 ± 2.6 µM. Moreover, in the data set on Aorta Tissue, the concentration for half-maximal inhibition (IC50) is 125 ± 13.8 µM and the “Ratio Aorta IC50 / Bladder IC50” value is 19.8.

The inhibition is the percentage by which the read-out fell short of the control. For `NC(=O)c1cccc2c1[nH]c1c3cc(Br)ccc3oc21` [Example 5, 8-Bromo-10H-benzo[4,5]furo[3,2-b]indole-1-carboxylic acid amide], the melting point is 300 to 301 °C. Also, in the data set on Bladder Tissue (setting [1]), the inhibition at 30 µM amounted to 13.5%.

Regarding `COC(=O)c1cccc2c1[nH]c1c3cc(Br)ccc3oc21` [Example 6, 8-Bromo-10H-benzo[4,5]furo[3,2-b]indole-1-carboxylic acid methyl ester], the melting point fell in the range of 204 to 205 °C. In the data set with Bladder Tissue (setting [1]), the inhibition at 30 µM was determined as 31%.

`OCc1cccc2c1[nH]c1c3cc(Br)ccc3oc21` [Example 7, (8-Bromo-10H-benzo[4,5]furo[3,2-b]indol-1-yl)-methanol] registered a melting point of 218 to 219 °C.

As for `CN(O)C(=O)c1cccc2c1[nH]c1c3cc(Br)ccc3oc21` [Example 8, 8-Bromo-10H-benzo[4,5]furo[3,2-b]indole-1-carboxylic acid hydroxy-methyl amide], the melting point was 174 to 175 °C. Moreover, in the data set with Bladder Tissue (Rattus norvegicus, 0.5 h), the IC50 worked out at 19.8 ± 4.02 µM. Moreover, in the data set on Aorta Tissue, it took 8.1 ± 3.6 µM to reach half-maximal inhibition (IC50) and the “Ratio Aorta IC50 / Bladder IC50” value came to 0.41.

`O=Cc1cccc2c1[nH]c1c3cc(Br)ccc3oc21` [Example 9, 8-Bromo-10H-benzo[4,5]furo[3,2-b]indole-1-carbaldehyde] showed a melting point of 280 to 281 °C. Also, the inhibition at 30 µM in the data set on Bladder Tissue (setting [1]) came to 19%.

Regarding `N#Cc1cccc2c1[nH]c1c3cc(Br)ccc3oc21` [Example 10, 8-Bromo-10H-benzo[4,5]furo[3,2-b]indole-1-carbonitrile hydrate], in the data set on Bladder Tissue (setting [1]), the inhibition at 30 µM stood at 10.1%.

As to `Brc1ccc2oc3c4cccc(-c5nnn[nH]5)c4[nH]c3c2c1` [Example 11, 8-Bromo-1-(1H-tetrazol-5-yl)-10H-benzo[4,5]furo[3,2-b]indole], the melting point is 275 to 277 °C (dec.). For the same molecule, the inhibition at 30 µM in the data set on Bladder Tissue (setting [1]) turned out to be 30.9%.

Consider `CC(NC(=O)c1cccc2c1[nH]c1c3cc(Br)ccc3oc21)C(C)(C)C` (centres unmarked) [Example 12, 8-Bromo-10H-benzo[4,5]furo[3,2-b]indole-1-carboxylic acid (1,2,2-trimethyl-propyl)-amide], for which the melting point lay in the range of 173 to 175 °C. In addition, in the data set with Bladder Tissue (Rattus norvegicus, 0.5 h), the IC50 came to 13.9 ± 0.95 µM. Besides, in the data set on Aorta Tissue, the half-maximal inhibitory concentration (IC50) is 25 ± 3.9 µM and the “Ratio Aorta IC50 / Bladder IC50” value was found to be 1.8.

Take `CCC(C)(C)NC(=O)c1cccc2c1[nH]c1c3cc(Br)ccc3oc21` [Example 13, 8-Bromo-10H-benzo[4,5]furo[3,2-b]indole-1-carboxylic acid (1,1-dimethyl-propyl)-amide]: the melting point is 242 to 244 °C (dec.). The inhibition at 30 µM in the data set on Bladder Tissue (setting [1]) was 28.5%.

Take `CNC(=O)c1cccc2c1[nH]c1c3cc(Br)ccc3oc21` [Example 14, 8-Bromo-10H-benzo[4,5]furo[3,2-b]indole-1-carboxylic acid methylamide]: the melting point is 264 to 265 °C (dec.). In the data set on Bladder Tissue (setting [1]), the inhibition at 30 µM was 4.8%.

For `COC(=O)c1cccc2c3oc4ccc(Br)cc4c3n(C)c12` [Example 15, 8-Bromo-10-methyl-10H-benzo[4,5]furo[3,2-b]indole-1-carboxylic acid methyl ester], the melting point was 195 to 196 °C. In the data set with Bladder Tissue (setting [1]), the inhibition at 30 µM came out at 4.5%.

Regarding `O=C(O)c1cccc2c1[nH]c1c3ccccc3oc21` [Example 16, 10H-Benzo[4,5]furo[3,2-b]indole-1-carboxylic acid], the melting point is 279 to 280 °C (dec.). In addition, in the data set with Bladder Tissue (Rattus norvegicus, 0.5 h), inhibition was half-maximal at 31 ± 6.5 µM (IC50).

In the case of `O=C(O)c1cccc2c1Cc1c-2[nH]c2ccc(I)cc12` [Example 17, 8-Iodo-5,10-dihydro-indeno[1,2-b]indole-1-carboxylic acid 0.6 hydrate], the concentration for half-maximal inhibition (IC50) in the data set on Bladder Tissue (rat bladder strips, additional 15 mM KCl, 50% inhibition of pre-drug contractile activity, 30 minute challenge) turned out to be 10.1 ± 3.2 µM.

Regarding `NS(=O)(=O)c1ccc2[nH]c3c(c2c1)Cc1c(C(=O)O)cccc1-3.NS(=O)(=O)c1ccc2[nH]c3c(c2c1)Cc1c(C(=O)O)cccc1-3.O` [Example 18, 8-Sulfamoyl-5,10-dihydro-indeno[1,2-b]indole-1-carboxylic acid hemi-hydrate], the “Bladder Tissue I = Percent inhibition at 30 μM” value in the data set with Bladder Tissue (setting [1]) is reported as “I = 5.2%*”.

`O=C(O)c1cccc2c1Cc1c-2[nH]c2ccc(F)cc12` [Example 19, 8-Fluoro-5,10-dihydro-indeno[1,2-b]indole-1-carboxylic acid]: the melting point is above 300 °C. For the same molecule, in the data set with Bladder Tissue (Rattus norvegicus, 0.5 h), 12.5 ± 5 µM corresponded to half-maximal inhibition (IC50). For the same molecule, in the data set with Aorta Tissue, 46.6 ± 18.7 µM corresponded to half-maximal inhibition (IC50) and the “Ratio Aorta IC50 / Bladder IC50” value came to 3.74.

In turn, `O=C(O)c1cccc2c1Cc1c-2[nH]c2ccc(Cl)cc12` [Example 20, 8-Chloro-5,10-dihydro-indeno[1,2-b]indole-1-carboxylic acid] returned a melting point above 300 °C. The same molecule returned a half-maximal inhibitory concentration (IC50) in the data set with Bladder Tissue (Rattus norvegicus, 0.5 h) of 22.6 ± 1.8 µM.

As for `O=C(O)c1cccc2c1Cc1c-2[nH]c2ccc(OC(F)(F)F)cc12` [Example 21, 8-Trifluoromethoxy-5,10-dihydro-indeno[1,2-b]indole-1-carboxylic acid], the melting point was 256 to 265 °C (dec.). The molecule also registered a half-maximal inhibitory concentration (IC50) in the data set on Bladder Tissue (Rattus norvegicus, 0.5 h) of 15.4 ± 4.8 µM.

Regarding `CCOC(=O)c1cccc2c1Cc1c-2[nH]c2ccc(Cl)cc12` [Example 22, 8-Chloro-5,10-dihydro-indeno[1,2-b]indole-1-carboxylic acid ethyl ester], the melting point lay in the range of 202 to 204 °C. Moreover, in the data set on Bladder Tissue (setting [1]), the inhibition at 30 µM worked out at 8%.

With `CCOC(=O)c1cccc2c1Cc1c-2[nH]c2ccc(Br)cc12` [Example 23, 8-Bromo-5,10-dihydro-indeno[1,2-b]indole-1-carboxylic acid ethyl ester], the melting point was 198 to 200 °C. Further, the inhibition at 30 µM in the data set on Bladder Tissue (setting [1]) was found to be 20%.

Turning to `O=C(O)c1cccc2c3c([nH]c12)-c1cc(Br)ccc1C3` [Example 26, 3-Bromo-5,10-dihydro-indeno[1,2-b]indole-6-carboxylic acid], the melting point was 245 to 247 °C (dec.). The half-inhibitory concentration (IC50) in the data set on Aorta Tissue came out at 210 ± 45 µM.

(Values after patent publication US6391902B1, “Substituted benzofuranoindoles and indenoindoles as novel potassium channel openers” (American Home Products Corporation, priority 1998, dated 2002).)
